Data from the NIST ThermoML archive (doi:10.1021/je500513b).

Assay: mn = molality of the nth substance listed, in mol/kg
Settings: for surface tension liquid-gas: Pendant drop shape; for electrical conductivity: 100 kPa, Liquid, Mettler Toledo inLab 710

O [water] + CCCCCCCCCCCCCC[N+](C)(C)CCCC[N+](C)(C)CCCCCCCCCCCCCC.[Br-].[Br-]
Settings	surface tension liquid-gas [mN/m]
298.15 K, m2 = 0	71.98

CCCCCCCCCCCC[N+](C)(C)CCC[N+](C)(C)CCCCCCCCCCCC.[Br-].[Br-] + O
Settings	electrical conductivity, 298.15 K [S/m]	electrical conductivity, 303.15 K [S/m]	electrical conductivity, 308.15 K [S/m]	electrical conductivity, 313.15 K [S/m]	electrical conductivity, 318.15 K [S/m]	electrical conductivity, 323.15 K [S/m]	surface tension liquid-gas, 298.15 K [mN/m]
m1 = 0.0001	–	–	–	–	–	–	60.28
m1 = 0.0002	–	–	–	–	–	–	51.37
m1 = 0.0004	–	–	–	–	–	–	41.67
m1 = 0.00057	0.0117	0.0131	–	0.0152	0.0174	–	–
m1 = 0.00059	–	–	–	–	–	0.0191	–
m1 = 0.0006	–	–	–	–	–	–	36.01
m1 = 0.00061	0.0126	0.0139	–	0.0168	0.0186	–	–
m1 = 0.00063	–	–	–	–	–	0.0203	–
m1 = 0.00064	0.0132	0.0146	0.0159	0.0176	0.0199	–	–
m1 = 0.00067	0.0138	0.0152	0.0168	0.0186	0.0209	0.0218	–
m1 = 0.0007	0.0144	0.0159	0.0176	0.0197	0.0219	0.0229	33.17
m1 = 0.00074	0.0151	0.0168	0.0184	0.0207	0.0231	0.0241	–
m1 = 0.00077	0.0156	0.0172	0.0191	–	–	–	–
m1 = 0.00079	–	–	–	0.0217	0.0245	0.0256	–
m1 = 0.0008	0.0161	0.0178	0.0196	–	–	–	32.87
m1 = 0.00083	0.0165	0.0185	0.0203	0.0229	0.0253	0.0272	–
m1 = 0.00085	–	–	–	–	–	–	32.79
m1 = 0.00087	0.0168	0.0191	0.021	0.0237	0.0262	0.0282	–
m1 = 0.0009	–	–	–	–	–	–	32.84
m1 = 0.00091	0.0171	0.0195	0.0216	0.0245	0.0271	0.0293	–
m1 = 0.00095	0.0175	0.02	0.0223	0.0254	0.028	0.0305	–
m1 = 0.001	0.0179	0.0205	0.0228	0.0262	0.0289	0.0319	32.76
m1 = 0.00105	0.0183	0.0209	0.0234	0.027	0.0299	0.0334	–
m1 = 0.0011	–	–	–	–	–	–	32.75
m1 = 0.00111	0.0187	0.0212	0.024	0.0277	0.0308	0.0349	–
m1 = 0.00118	0.0191	0.0217	0.0244	0.0285	0.0318	0.036	–
m1 = 0.0012	–	–	–	–	–	–	32.81
m1 = 0.00125	0.0195	0.0221	0.025	0.0293	0.0327	0.0374	–
m1 = 0.00134	0.0199	0.0225	0.0257	0.0301	0.0335	0.0384	–
m1 = 0.00143	0.0203	0.0229	0.0264	0.031	0.0347	0.0394	–
m1 = 0.0015	–	–	–	–	–	–	32.59
m1 = 0.00154	0.0208	0.0235	0.027	0.0319	0.0357	0.0404	–
m1 = 0.0016	0.0211	0.0237	–	–	–	0.0413	–
m1 = 0.00163	–	–	0.0277	–	–	–	–
m1 = 0.00167	0.0214	0.0242	–	0.0327	0.037	0.042	–
m1 = 0.0017	–	–	0.028	–	–	–	–
m1 = 0.00174	0.0217	0.0247	–	0.0331	0.0376	0.0427	–
m1 = 0.00178	–	–	0.0285	–	–	–	–
m1 = 0.00182	0.0221	0.0251	–	0.0336	0.0383	0.0434	–
m1 = 0.00186	–	–	0.0291	–	–	–	–
m1 = 0.00191	0.0225	0.0256	–	0.0343	0.039	0.044	–
m1 = 0.002	0.023	0.0263	0.0301	0.0349	0.0399	0.0451	32.62

O [water] + CCCCCCCCCCCC[N+](C)(C)CCC[N+](C)(C)CCCCCCCCCCCC.[Br-].[Br-]
Settings	surface tension liquid-gas [mN/m]
298.15 K, m2 = 0	71.98
